A short description of series [1]: Selectivity index, ratio of CC50 for cytotoxicity against human […] cells incubated for 48 hrs to IC50 for antiparasitic activity against Trichomonas vaginalis JT assessed as inhibition of parasite growth incubated for 48 hrs. The class given is toxicity, cell-based. As to conditions: read-out: Ratio CC50/IC50.
Series [2] in a line: Cytotoxicity against human HeLa cells assessed as reduction in cell viability incubated for 24 hrs by MTT assay. It counts as toxicity, cell-based. For orientation: Tetrazolium dyes change colour on reduction, which living cells bring about.
Series [3] relates to Trichomonas vaginalis. The series can be described thus: Antiparasitic activity against Trichomonas vaginalis JT assessed as inhibition of parasite growth incubated for 24 hrs by flow cytometric analysis. The class given is functional, organism-based. (In general: In flow cytometry, cells or beads pass a laser one at a time.)
A short description of series [4]: Cytotoxicity against human HeLa cells assessed as reduction in cell viability incubated for 48 hrs by MTT assay. The class given is toxicity, cell-based.
Series [5] deals with Trichomonas vaginalis. In words: Antiparasitic activity against Trichomonas vaginalis JT assessed as inhibition of parasite growth incubated for 48 hrs by flow cytometric analysis. The class given is functional, organism-based.
Series [6] can be described thus: Selectivity index, ratio of CC50 for cytotoxicity against human […] cells incubated for 24 hrs to IC50 for antiparasitic activity against Trichomonas vaginalis JT assessed as inhibition of parasite growth incubated for 24 hrs. It counts as toxicity, cell-based. Particulars: read-out: Ratio CC50/IC50.
In series [7] the test system is Trichomonas vaginalis. In words: Potency index, ratio of metronidazole IC50 to test compound IC50 for antiparasitic activity against Trichomonas vaginalis JT assessed as inhibition of parasite growth incubated for 48 hrs by flow cytometric analysis. It counts as functional.
For series [8], the system named is Trichomonas vaginalis. The series can be described thus: Selectivity index, ratio of IC50 for antiparasitic activity against Trichomonas vaginalis JT assessed as inhibition of parasite growth incubated for 24 hrs to IC50 for antiparasitic activity against Trichomonas vaginalis JT assessed as inhibition of parasite growth incubated for 48 hrs. It counts as functional.

The test system of series [9] is Trichomonas vaginalis. In words: Selectivity index, ratio of IC50 for antiparasitic activity against Trichomonas vaginalis JT assessed as inhibition of parasite growth incubated for 48 hrs to IC50 for antiparasitic activity against Trichomonas vaginalis JT assessed as inhibition of parasite growth incubated for 24 hrs. The class given is functional.

The term CC50 denotes the concentration giving 50% cytotoxicity. For orientation: IC50 means the concentration at which inhibition is half-maximal. Consider `O=C(OCCn1cnc([N+](=O)[O-])c1)c1cnn(-c2ccccc2)c1`, for which the selectivity ratio at 48 h in [1] was 7.7. Moreover, in series [2], the CC50 at 24 h amounted to 236 µM. Moreover, the half-inhibitory concentration (IC50) in the series on Trichomonas vaginalis [3] was found to be 7.5 µM; with Trichomonas vaginalis [5], 12.6 µM. In series [4], the CC50 at 48 h came out at 98 µM. Moreover, the selectivity ratio at 24 h in series [6] worked out at 31.4.

Regarding `O=C(OCCn1cnc([N+](=O)[O-])c1)c1cnn(-c2cccc(Cl)c2)c1`, the selectivity ratio at 48 h in series [1] stood at 10.5. The CC50 at 24 h in series [2] was determined as 218 µM. Besides, the IC50 in the series with Trichomonas vaginalis [3] turned out to be 10.3 µM; in the series on Trichomonas vaginalis [5] it was 8 µM. Besides, in [4], the CC50 at 48 h came out at 84.9 µM. Moreover, in series [6], the selectivity ratio at 24 h is 21.

Regarding `O=C(OCCn1cnc([N+](=O)[O-])c1)c1cnn(-c2ccc(Cl)c(Cl)c2)c1`, the selectivity ratio at 48 h in [1] was 8.81. Besides, the CC50 at 24 h in series [2] was 584 µM. Moreover, the IC50 in the series on Trichomonas vaginalis [3] amounted to 5.3 µM; in the series on Trichomonas vaginalis [5] it was 35.5 µM. For the same compound, the CC50 at 48 h in series [4] was found to be 313 µM. In addition, the selectivity ratio at 24 h in [6] was 110.

Consider `O=C(OCCn1cnc([N+](=O)[O-])c1)c1cnn(-c2cc(Cl)cc(Cl)c2)c1`, for which, in series [1], the selectivity ratio at 48 h was 37. For the same compound, the CC50 at 24 h in series [2] stood at 266 µM. Besides, the results for the IC50 in the series with Trichomonas vaginalis [3] and with Trichomonas vaginalis [5] were 13.8 µM and 4.4 µM, respectively. The “Ratio IC50” value with Trichomonas vaginalis [7] was “<=19.2”. In [4], the CC50 at 48 h came out at 164 µM. Further, the selectivity ratio at 24 h in series [6] was found to be 19.2.

On to `O=C(OCCn1cnc([N+](=O)[O-])c1)c1cnn(-c2cccc(Br)c2)c1`, for which the selectivity ratio at 48 h in [1] worked out at 53.8. Moreover, the CC50 at 24 h in series [2] came out at 148 µM. For the same compound, the values for the IC50 with Trichomonas vaginalis [3] and with Trichomonas vaginalis [5] were 5.2 µM and 2.1 µM, respectively. Moreover, the entries for the “Ratio IC50” value with Trichomonas vaginalis [7] and in the series on Trichomonas vaginalis [8] were “<=19.2” and around 2.5, respectively. In series [4], the CC50 at 48 h was determined as 111 µM. Moreover, in series [6], the selectivity ratio at 24 h turned out to be 28.1.

For the compound `O=C(OCCn1cnc([N+](=O)[O-])c1)c1cnn(-c2cccc(F)c2)c1`, in [1], the selectivity ratio at 48 h stood at 5.58. In series [2], the CC50 at 24 h amounted to 185 µM. The results for the IC50 with Trichomonas vaginalis [3] and in the series on Trichomonas vaginalis [5] were 18.2 µM and 18 µM, respectively. The CC50 at 48 h in series [4] was found to be 100 µM. Also, the selectivity ratio at 24 h in series [6] was 10.1.

With `Cc1ncc([N+](=O)[O-])n1CCO` [METRONIDAZOLE], in series [1], the selectivity ratio at 48 h was 7.19. Also, the CC50 at 24 h in series [2] turned out to be 666 µM. Also, the figures for the IC50 with Trichomonas vaginalis [3] and in the series on Trichomonas vaginalis [5] were 4.9 µM and 39.7 µM, respectively. Also, the CC50 at 48 h in [4] amounted to 286 µM. Besides, the selectivity ratio at 24 h in series [6] came out at 136.

As for `O=[N+]([O-])c1cn(CCO)cn1`, the selectivity ratio at 48 h in series [1] was found to be 5.22. Further, in [2], the CC50 at 24 h worked out at 120 µM. For the same compound, the values for the IC50 in the series on Trichomonas vaginalis [3] and in the series with Trichomonas vaginalis [5] were 19.9 µM and 40.6 µM, respectively. Further, the CC50 at 48 h in series [4] came to 212 µM. In [6], the selectivity ratio at 24 h was 6.

Regarding `O=C(OCCn1cnc([N+](=O)[O-])c1)c1cnn(-c2ccc(Cl)cc2)c1`, the selectivity ratio at 48 h in series [1] is 17. Further, in the series on Trichomonas vaginalis [9], the “Ratio IC50” value is recorded as around 2. For the same compound, the CC50 at 24 h in [2] turned out to be 195 µM. The IC50 in the series on Trichomonas vaginalis [3] amounted to 4.8 µM; in the series on Trichomonas vaginalis [5], 10.3 µM. For the same compound, the CC50 at 48 h in [4] amounted to 177 µM. Also, the selectivity ratio at 24 h in series [6] worked out at 40.3.

Consider `O=C(OCCn1cnc([N+](=O)[O-])c1)c1cnn(-c2ccc(Br)cc2)c1`, for which, in series [1], the selectivity ratio at 48 h was determined as 4.86. Besides, in series [2], the CC50 at 24 h is 69.3 µM. Moreover, the IC50 with Trichomonas vaginalis [3] came to 15 µM; with Trichomonas vaginalis [5] it was 18.6 µM. Besides, the CC50 at 48 h in [4] was 90.4 µM. The selectivity ratio at 24 h in [6] is 4.6.

As for `COc1ccc(-n2cc(C(=O)OCCn3cnc([N+](=O)[O-])c3)cn2)cc1`, the selectivity ratio at 48 h in series [1] came to 5.78. The CC50 at 24 h in series [2] was found to be 211 µM. In addition, the IC50 in the series on Trichomonas vaginalis [3] stood at 18.8 µM; in the series with Trichomonas vaginalis [5] it was 24.4 µM. Moreover, in series [4], the CC50 at 48 h was found to be 141 µM. Further, the selectivity ratio at 24 h in series [6] worked out at 11.1.

For the compound `O=C(OCCn1cnc([N+](=O)[O-])c1)c1cnn(-c2ccc(F)cc2)c1`, the selectivity ratio at 48 h in [1] turned out to be 48.2. Moreover, the CC50 at 24 h in series [2] amounted to 214 µM. For the same compound, the figures for the IC50 in the series on Trichomonas vaginalis [3] and in the series with Trichomonas vaginalis [5] were 10.1 µM and 3.8 µM, respectively. Further, the “Ratio IC50” value with Trichomonas vaginalis [7] is reported as “<=19.2”; in the series with Trichomonas vaginalis [8], around 2.5. Besides, the CC50 at 48 h in [4] was 182 µM. The selectivity ratio at 24 h in series [6] turned out to be 21.

The record behind these values is ChEMBL document CHEMBL5523699, “Exploring novel pyrazole-nitroimidazole hybrids: Synthesis and antiprotozoal activity against the human pathogen trichomonas vaginalis” (Bioorg Med Chem, 2024).
